In brackets after ≈: the same amount, converted by molar mass. Numbered stars: 1 amine (or outer) side, 2 acyl side, 3 side chain; on linkers, the order of the positions; unused ones are H or OH. Square brackets hold non-standard residues; d marks the D form. Peptide text beside a SMILES is read from it. * marks the point of attachment. X4 = N[C@@H](Cc1ccccc1)CN(CC(=O)[*:2])[*:1]; X7 = O=S(=O)(c1cc(C(F)(F)F)cc(C(F)(F)F)c1)*; X2 = CC(C)C[C@H](N)CN(CC(=O)[*:2])[*:1]
How the values were obtained:
[1] = test system: Staphylococcus aureus; assay: Antimicrobial activity against methicillin-resistant Staphylococcus aureus 5 assessed as inhibition of visible bacterial growth incubated for 18 hrs by broth-dilution method; assay type: functional
[2] = test system: Staphylococcus aureus; assay: Antimicrobial activity against methicillin-resistant Staphylococcus aureus 3 assessed as inhibition of visible bacterial growth incubated for 18 hrs by broth-dilution method; assay type: functional
[3] = test system: Staphylococcus aureus; assay: Antimicrobial activity against methicillin-resistant Staphylococcus aureus 6 assessed as inhibition of visible bacterial growth incubated for 18 hrs by broth-dilution method; assay type: functional
[4] = test system: Staphylococcus aureus; assay: Antimicrobial activity against methicillin-resistant Staphylococcus aureus ATCC 33591 assessed as inhibition of visible bacterial growth incubated for 18 hrs by broth-dilution method; assay type: functional
[5] = test system: Staphylococcus aureus; assay: Antimicrobial activity against methicillin-resistant Staphylococcus aureus 8 assessed as inhibition of visible bacterial growth incubated for 18 hrs by broth-dilution method; assay type: functional
[6] = test system: Staphylococcus aureus; assay: Antimicrobial activity against methicillin-resistant Staphylococcus aureus 10 assessed as inhibition of visible bacterial growth incubated for 18 hrs by broth-dilution method; assay type: functional
[7] = test system: Staphylococcus aureus; assay: Antimicrobial activity against methicillin-resistant Staphylococcus aureus 4 assessed as inhibition of visible bacterial growth incubated for 18 hrs by broth-dilution method; assay type: functional
[8] = test system: Staphylococcus aureus; assay: Antimicrobial activity against methicillin-resistant Staphylococcus aureus 1 assessed as inhibition of visible bacterial growth incubated for 18 hrs by broth-dilution method; assay type: functional
[9] = test system: Bacillus subtilis; assay: Antimicrobial activity against Bacillus subtilis ATCC 23857 assessed as inhibition of visible bacterial growth incubated for 18 hrs by broth-dilution method; assay type: functional
[10] = test system: Acinetobacter baumannii; assay: Antimicrobial activity against Acinetobacter baumannii ATCC 19606 assessed as inhibition of visible bacterial growth incubated for 18 hrs by broth-dilution method; assay type: functional
[11] = test system: Salmonella typhimurium; assay: Antimicrobial activity against Salmonella typhimurium ATCC 14028 assessed as inhibition of visible bacterial growth incubated for 18 hrs by broth-dilution method; assay type: functional, Salmonella enterica subsp. enterica serovar Typhimurium; conditions: Salmonella enterica
[12] = test system: Pseudomonas aeruginosa; assay: Antimicrobial activity against Pseudomonas aeruginosa ATCC 27853 assessed as inhibition of visible bacterial growth incubated for 18 hrs by broth-dilution method; assay type: functional
[13] = test system: Staphylococcus aureus; assay: Antimicrobial activity against Staphylococcus aureus ATCC 25923 assessed as inhibition of visible bacterial growth incubated for 18 hrs by broth-dilution method; assay type: functional
[14] = test system: Staphylococcus aureus; assay: Antimicrobial activity against methicillin-resistant Staphylococcus aureus 7 assessed as inhibition of visible bacterial growth incubated for 18 hrs by broth-dilution method; assay type: functional
[15] = test system: Escherichia coli; assay: Antimicrobial activity against Escherichia coli ATCC 25922 assessed as inhibition of visible bacterial growth incubated for 18 hrs by broth-dilution method; assay type: functional
[16] = test system: Staphylococcus aureus; assay: Antimicrobial activity against methicillin-resistant Staphylococcus aureus 2 assessed as inhibition of visible bacterial growth incubated for 18 hrs by broth-dilution method; assay type: functional
[17] = test system: Staphylococcus epidermidis; assay: Antimicrobial activity against Staphylococcus epidermidis ATCC 12228 assessed as inhibition of visible bacterial growth incubated for 18 hrs by broth-dilution method; assay type: functional
[18] = test system: Staphylococcus aureus; assay: Antimicrobial activity against methicillin-resistant Staphylococcus aureus 9 assessed as inhibition of visible bacterial growth incubated for 18 hrs by broth-dilution method; assay type: functional
[19] = test system: Pseudomonas aeruginosa; assay: Antimicrobial activity against multidrug-resistant Pseudomonas aeruginosa 156 assessed as inhibition of visible bacterial growth incubated for 18 hrs by broth-dilution method; assay type: functional
[20] = test system: Pseudomonas aeruginosa; assay: Antimicrobial activity against multidrug-resistant Pseudomonas aeruginosa 119 assessed as inhibition of visible bacterial growth incubated for 18 hrs by broth-dilution method; assay type: functional
[21] = test system: Staphylococcus aureus; assay: Antibacterial activity against antibiotics-resistant Staphylococcus aureus ATCC 33591 assessed as reduction in microbial growth; assay type: functional
[22] = test system: Pseudomonas aeruginosa; assay: Antimicrobial activity against multidrug-resistant Pseudomonas aeruginosa 157 assessed as inhibition of visible bacterial growth incubated for 18 hrs by broth-dilution method; assay type: functional
[23] = test system: Pseudomonas aeruginosa; assay: Antibacterial activity against antibiotics-resistant Pseudomonas aeruginosa […] assessed as reduction in microbial growth; assay type: functional
[24] = test system: Pseudomonas aeruginosa; assay: Antimicrobial activity against multidrug-resistant Pseudomonas aeruginosa 124 assessed as inhibition of visible bacterial growth incubated for 18 hrs by broth-dilution method; assay type: functional
[25] = test system: Pseudomonas aeruginosa; assay: Antimicrobial activity against multidrug-resistant Pseudomonas aeruginosa 050 assessed as inhibition of visible bacterial growth incubated for 18 hrs by broth-dilution method; assay type: functional
[26] = test system: Pseudomonas aeruginosa; assay: Antimicrobial activity against multidrug-resistant Pseudomonas aeruginosa 061 assessed as inhibition of visible bacterial growth incubated for 18 hrs by broth-dilution method; assay type: functional
[27] = test system: Pseudomonas aeruginosa; assay: Antimicrobial activity against multidrug-resistant Pseudomonas aeruginosa 125 assessed as inhibition of visible bacterial growth incubated for 18 hrs by broth-dilution method; assay type: functional
[28] = test system: Pseudomonas aeruginosa; assay: Antimicrobial activity against multidrug-resistant Pseudomonas aeruginosa 085 assessed as inhibition of visible bacterial growth incubated for 18 hrs by broth-dilution method; assay type: functional
[29] = test system: Erythrocyte; assay: Hemolytic activity against mouse Red blood cell incubated for 1 hr; assay type: toxicity, cell-based
[30] = Stability in human serum assessed as half life measured for 5 hrs by RP-HPLC analysis; assay type: ADME, cell-free
[31] = test system: Pseudomonas aeruginosa; assay: Antimicrobial activity against multidrug-resistant Pseudomonas aeruginosa 516 assessed as inhibition of visible bacterial growth incubated for 18 hrs by broth-dilution method; assay type: functional
[32] = test system: Pseudomonas aeruginosa; assay: Antimicrobial activity against multidrug-resistant Pseudomonas aeruginosa 073 assessed as inhibition of visible bacterial growth incubated for 18 hrs by broth-dilution method; assay type: functional
[33] = test system: Staphylococcus aureus; assay: Antimicrobial activity against Staphylococcus aureus ATCC 25923 assessed as fold change in MIC in presence of salt solution; assay type: functional
[34] = test system: Staphylococcus aureus; assay: Antimicrobial activity against Staphylococcus aureus ATCC 25923 assessed as reduction in bacterial growth in presence of Ca2+; assay type: functional

CC1(C)S[C@@H]2[C@H](NC(=O)[C@H](N)c3ccc(O)cc3)C(=O)N2[C@H]1C(=O)O [AMOXICILLIN]
MIC [1]: 32 µg/mL (≈ 87.6 µM) | MIC [2]: 4 µg/mL (≈ 10.9 µM) | MIC [3]: 32 µg/mL (≈ 87.6 µM) | MIC [4]: 128 µg/mL (≈ 350 µM) | MIC [5]: 4 µg/mL (≈ 10.9 µM) | MIC [6]: 32 µg/mL (≈ 87.6 µM) | MIC [7]: 8 µg/mL (≈ 21.9 µM) | MIC [8]: 4 µg/mL (≈ 10.9 µM) | MIC [9]: 256 µg/mL (≈ 701 µM) | MIC [10]: 128 µg/mL (≈ 350 µM) | MIC [11]: 256 µg/mL (≈ 701 µM) | MIC [12]: 256 µg/mL (≈ 701 µM) | MIC [13]: 1 µg/mL (≈ 2.74 µM) | MIC [14]: 16 µg/mL (≈ 43.8 µM) | MIC [15]: 4 µg/mL (≈ 10.9 µM) | MIC [16]: 4 µg/mL (≈ 10.9 µM) | MIC [17]: 256 µg/mL (≈ 701 µM) | MIC [18]: 8 µg/mL (≈ 21.9 µM)

C[C@H]1[C@H](NC(=O)/C(=N\OC(C)(C)C(=O)O)c2csc(N)n2)C(=O)N1S(=O)(=O)O [AZTREONAM]
MIC [19]: 256 µg/mL (≈ 588 µM) | MIC [20]: 8 µg/mL (≈ 18.4 µM) | MIC [21]: 32 µg/mL | MIC [22]: 8 µg/mL (≈ 18.4 µM) | MIC [23]: 32 µg/mL | MIC [24]: 4 µg/mL (≈ 9.19 µM) | MIC [25]: 8 µg/mL (≈ 18.4 µM) | MIC [26]: 256 µg/mL (≈ 588 µM) | MIC [27]: 8 µg/mL (≈ 18.4 µM) | MIC [28]: 8 µg/mL (≈ 18.4 µM)

CC(C)C[C@H](NC(=O)[C@H](CC(C)C)NC(=O)[C@H](CCCCN)NC(=O)[C@H](CCCCN)NC(=O)[C@H](CC(C)C)NC(=O)[C@H](C)NC(=O)[C@H](CCCCN)NC(=O)CN(C[C@@H](N)Cc1ccccc1)S(=O)(=O)c1cc(C(F)(F)F)cc(C(F)(F)F)c1)C(N)=O (X7-[X4]KALKKLL-NH2)
MHC [29]: 128 µg/mL | MIC [4]: 8 µg/mL (≈ 6.26 µM) | MIC [9]: 4 µg/mL (≈ 3.13 µM) | MIC [10]: 16 µg/mL (≈ 12.5 µM) | MIC [11]: 8 µg/mL (≈ 6.26 µM) | MIC [12]: 16 µg/mL (≈ 12.5 µM) | MIC [13]: 8 µg/mL (≈ 6.26 µM) | MIC [15]: 16 µg/mL (≈ 12.5 µM) | MIC [17]: 8 µg/mL (≈ 6.26 µM)

CC(C)C[C@H](NC(=O)[C@H](CC(C)C)NC(=O)[C@H](CCCCN)NC(=O)[C@H](CCCCN)NC(=O)[C@H](CC(C)C)NC(=O)[C@H](CC(C)C)NC(=O)[C@H](CCCCN)NC(=O)CN(C[C@@H](N)Cc1ccccc1)S(=O)(=O)c1cc(C(F)(F)F)cc(C(F)(F)F)c1)C(N)=O (X7-[X4]KLLKKLL-NH2)
MHC [29]: 32 µg/mL | MIC [4]: 8 µg/mL (≈ 6.06 µM) | MIC [9]: 4 µg/mL (≈ 3.03 µM) | MIC [10]: 16 µg/mL (≈ 12.1 µM) | half-life [30]: 5.6 h | MIC [11]: 8 µg/mL (≈ 6.06 µM) | MIC [12]: 8 µg/mL (≈ 6.06 µM) | MIC [13]: 4 µg/mL (≈ 3.03 µM) | MIC [15]: 8 µg/mL (≈ 6.06 µM) | MIC [17]: 8 µg/mL (≈ 6.06 µM)

C[C@@H](O)[C@H]1C(=O)N2C(C(=O)O)=C(SCCNC=N)C[C@H]12 [IMIPENEM ANHYDROUS]
MIC [19]: 4 µg/mL (≈ 13.4 µM) | MIC [1]: 1 µg/mL (≈ 3.34 µM) | MIC [2]: 1 µg/mL (≈ 3.34 µM) | MIC [3]: 1 µg/mL (≈ 3.34 µM) | MIC [20]: 2 µg/mL (≈ 6.68 µM) | MIC [31]: 4 µg/mL (≈ 13.4 µM) | MIC [4]: 32 µg/mL (≈ 107 µM) | MIC [5]: 1 µg/mL (≈ 3.34 µM) | MIC [6]: 1 µg/mL (≈ 3.34 µM) | MIC [7]: 1 µg/mL (≈ 3.34 µM) | MIC [8]: 1 µg/mL (≈ 3.34 µM) | MIC [21]: 32 µg/mL | MIC [32]: 4 µg/mL (≈ 13.4 µM) | MIC [22]: 2 µg/mL (≈ 6.68 µM) | MIC [23]: 32 µg/mL | MIC [24]: 4 µg/mL (≈ 13.4 µM) | MIC [25]: 8 µg/mL (≈ 26.7 µM) | MIC [26]: 2 µg/mL (≈ 6.68 µM) | MIC [9]: 1 µg/mL (≈ 3.34 µM) | MIC [10]: 1 µg/mL (≈ 3.34 µM) | MIC [11]: 1 µg/mL (≈ 3.34 µM) | MIC [12]: 2 µg/mL (≈ 6.68 µM) | MIC [13]: 1 µg/mL (≈ 3.34 µM) | MIC [14]: 1 µg/mL (≈ 3.34 µM) | MIC [15]: 1 µg/mL (≈ 3.34 µM) | MIC [27]: 8 µg/mL (≈ 26.7 µM) | MIC [28]: 8 µg/mL (≈ 26.7 µM) | MIC [16]: 1 µg/mL (≈ 3.34 µM) | MIC [17]: 1 µg/mL (≈ 3.34 µM) | MIC [18]: 1 µg/mL (≈ 3.34 µM)

CC(C)C[C@H](N)CN(CC(=O)N[C@@H](CCCCN)C(=O)N[C@@H](CC(C)C)C(=O)N[C@@H](CC(C)C)C(=O)N[C@@H](CCCCN)C(=O)N[C@@H](CCCCN)C(=O)N[C@@H](CC(C)C)C(=O)N[C@@H](CC(C)C)C(N)=O)S(=O)(=O)c1cc(C(F)(F)F)cc(C(F)(F)F)c1 (X7-[X2]KLLKKLL-NH2)
fold change (FC) [33]: 0.25 | MHC [29]: 128 µg/mL | MIC [4]: 4 µg/mL (≈ 3.11 µM) | MIC [34]: 32 µg/mL | MIC [9]: 16 µg/mL (≈ 12.4 µM) | MIC [10]: 16 µg/mL (≈ 12.4 µM) | half-life [30]: 3.33 h | MIC [11]: 16 µg/mL (≈ 12.4 µM) | MIC [12]: 4 µg/mL (≈ 3.11 µM) | MIC [13]: 8 µg/mL (≈ 6.22 µM) | MIC [15]: 8 µg/mL (≈ 6.22 µM) | MIC [17]: 16 µg/mL (≈ 12.4 µM)

— ChEMBL document CHEMBL5537135, “Novel antimicrobial peptides modified with fluorinated sulfono-γ-AA having high stability and targeting multidrug-resistant bacteria infections” (Eur J Med Chem, 2024)
